Molecules are shown by their SMILES. Converted amounts (≈) assume the structure as drawn.

Our source for the MIC values is patent US5243042A, “1-thiaguanosine and process for preparing oxanosine and 1-thiaguanosine” (Hoffmann-La Roche Inc., priority 1990, dated 1993).

Holding throughout (assay): MIC by agar dilution method, minimal agar medium
What all share (assay type): cell-based
(In general: Agar dilution tests growth on a series of plates holding different concentrations.)

For one assay, the system named is E. coli 257. Conditions: Escherichia coli, over-night incubation at 36° C., read-out: MIC (minimum inhibitory concentration). How it is done: (§1) To avoid possible antimetabolite reversal, a minimal agar medium^2 was employed. Inoculum was grown over-night at 36° C. in minimal broth medium and diluted a hundred-fold before use. Agar plates containing a serial dilution of the compounds of formula Ia were inoculated using a Steer's replicator. Approximately 3 μL was applied per spot. MICs were recorded after over-night incubation at 36° C.
(§2) ^1 Barry, A. L., Procedure for Testing Antimicrobial Agents in Agar Media: Theoretical Considerations, p. 1-26. In Victor Lorian (Ed.), Antibiotics in Laboratory Medicine, 2nd ed. The Williams & Wilkins Co., Baltimore.
(§3) ^2 Davis, B. D.; Mingioli, E. S. J. BACTERIOL. 1950, 60, 17-28.
(§4) The minimum inhibitory concentrations of 1-thiaguanosine, the compound of formula Ia, against various bacteria were as follows: […]

For another assay, the system named is E. coli 2721B. Conditions: Escherichia coli, over-night incubation at 36° C., read-out: MIC (minimum inhibitory concentration). How it is done:
as §1, §2, §3, §4

Another assay concerns E. coli 94. As to conditions: Escherichia coli, over-night incubation at 36° C., read-out: MIC (minimum inhibitory concentration). The procedure:
as §1, §2, §3, §4

The subject of the next assay is E. coli ATCC 25922. Conditions: Escherichia coli, ATCC25922, over-night incubation at 36° C., read-out: MIC (minimum inhibitory concentration). How it is done:
as §1, §2, §3, §4

The test system of another assay is E. coli B. As to conditions: Escherichia coli, over-night incubation at 36° C., read-out: MIC (minimum inhibitory concentration). How it is done:
as §1, §2, §3, §4

The next assay deals with Prov. rettgeri ATTC 9250. Conditions: Providencia rettgeri, ATTC9250, over-night incubation at 36° C., read-out: MIC (minimum inhibitory concentration). The procedure: as §1, §2, §3, §4
Assay [1] relates to S. typhimurium ATTC 13311. As to conditions: Salmonella enterica, over-night incubation at 36° C., read-out: MIC (minimum inhibitory concentration). The procedure:
as §1, §2, §3, §4

For another assay, the system named is S. typhimurium LT-2. As to conditions: Salmonella enterica, over-night incubation at 36° C., read-out: MIC (minimum inhibitory concentration). How it is done: as §1, §2, §3, §4

On to `Nc1nc2c(ncn2[C@@H]2O[C@H](CO)[C@@H](O)[C@H]2O)c(=O)s1` [1-thiaguanosine, 5-amino-3-(β-D-ribofuranosyl)imidazo[4,5-d][1,3]thiazin-7(3H)-one], for which the MIC in the assay on E. coli 257 was 16 µg/mL (≈ 53.3 µM); in the assay on E. coli 2721B, 128 µg/mL (≈ 426 µM); in the assay with E. coli 94, 32 µg/mL (≈ 107 µM); in the assay on E. coli ATCC 25922, 128 µg/mL (≈ 426 µM); in the assay on E. coli B, 128 µg/mL (≈ 426 µM); with Prov. rettgeri ATTC 9250, 4 µg/mL (≈ 13.3 µM). For the same compound, the MIC (in assay [1]; in the assay with S. typhimurium LT-2) was 8 µg/mL (≈ 26.6 µM) in each case.
